The values below are quoted from earlier work in patent publication US20140234406A1, “NOVEL NANOPARTICULATE SUSPENSION FOR INCORPORATING FAT-SOLUBLE VITAMINS IN THE TREATMENT OF HAIR THINNING and HAIR LOSS” (HairRx, priority 2013, published 2014).

Each structure is given as a SMILES string.

The conditions of this series: biological half-life; reported by Yap et al. 2001 and Schwedhelm et al. 2003.

Take `Cc1c(C)c2c(c(C)c1O)CC[C@@](C)(CCC[C@H](C)CCC[C@H](C)CCCC(C)C)O2` [alpha-tocopherol]: the half-life is 73 to 81 h.
